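Interpolation was linear, between the two tested concentrations surrounding the appropriate level; five concentrations were tested over 48 hours in 96-well plates. At the TGI there is no net growth.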
How the values were obtained:
Assay in all cases: inhibition of tumour cell growth, NCI panel, 48 h
[1] = tested on: SK-MEL-2 melanoma
[2] = tested on: SK-MEL-28 melanoma
[3] = tested on: SF-295 CNS
[4] = tested on: SK-OV-3 ovarian
[5] = tested on: CAKI-1 renal
[6] = tested on: SR leukemia
[7] = tested on: M14 melanoma
[8] = tested on: SW-620 colon
[9] = tested on: HT29 colon
[10] = tested on: OVCAR-3 ovarian
[11] = tested on: A549 NSCLC
[12] = tested on: K-562 leukemia
[13] = tested on: UACC-257 melanoma
[14] = tested on: OVCAR-5 ovarian
[15] = tested on: DMS 273 small cell lung
[16] = tested on: NCI-H460 lung
[17] = tested on: UACC-62 melanoma
[18] = tested on: MALME-3M melanoma
[19] = tested on: SF-268 CNS
[20] = tested on: 786-0 renal
[21] = tested on: NCI-H23 lung
[22] = tested on: HCT-116 colon
[23] = tested on: KM20L2 colon
[24] = tested on: HOP-62 NSCLC
[25] = tested on: HL-60(TB) leukemia
[26] = tested on: EKVX NSCLC
[27] = tested on: MOLT-4 leukemia
[28] = tested on: NCI-H226 lung
[29] = tested on: SN12C renal
[30] = tested on: NCI-H522 lung
[31] = tested on: UO-31 renal
[32] = tested on: SNB-75 CNS
[33] = tested on: RPMI-8226 leukemia
[34] = tested on: LOX IMVI melanoma
[35] = tested on: HCT-15 colon
[36] = tested on: TK-10 renal
[37] = tested on: OVCAR-8 ovarian
[38] = tested on: SK-MEL-5 melanoma
[39] = tested on: IGROV1 ovarian
[40] = tested on: DLD-1 colon
[41] = tested on: COLO 205 colon
[42] = tested on: SNB-19 CNS
[43] = tested on: HCC-2998 colon
[44] = tested on: U251 CNS
[45] = tested on: RXF 393 renal
[46] = tested on: ACHN renal
[47] = tested on: LXFL 529 NSCLC
[48] = tested on: DMS 114 small cell lung
[49] = tested on: A498 renal
[50] = tested on: M19-MEL melanoma
[51] = tested on: SNB-78 CNS
[52] = tested on: CCRF-CEM leukemia
[53] = tested on: SF-539 CNS
[54] = tested on: HOP-92 NSCLC
[55] = tested on: XF 498 CNS
[56] = tested on: OVCAR-4 ovarian
[57] = tested on: HOP-18 NSCLC
[58] = tested on: KM12 colon
[59] = tested on: BT-549 breast
[60] = tested on: T-47D breast
[61] = tested on: PC-3 prostate
[62] = tested on: MDA-MB-231 breast
[63] = tested on: MDA-N
[64] = tested on: MCF7 breast
[65] = tested on: HS 578T breast
[66] = tested on: DU-145 prostate
[67] = tested on: MDA-MB-435
[68] = tested on: NCI/ADR-RES ovarian

CC1CCc2c(sc3ncnc(N/N=C/c4ccc(Cl)cc4)c23)C1 (centres undefined)
TGI [1]: > 100 µM | TGI [2]: > 100 µM | TGI [3]: 75.5 µM | TGI [4]: > 100 µM | TGI [5]: 89.5 µM | TGI [6]: 55 µM | TGI [7]: 68.2 µM | TGI [8]: > 100 µM | TGI [9]: > 100 µM | TGI [10]: > 100 µM | TGI [11]: > 100 µM | TGI [12]: 48.1 µM | TGI [13]: 70.3 µM | TGI [14]: > 100 µM | TGI [15]: > 100 µM | TGI [16]: > 100 µM | TGI [17]: > 100 µM | TGI [18]: > 100 µM | TGI [19]: > 100 µM | TGI [20]: > 100 µM | TGI [21]: > 100 µM | TGI [22]: > 100 µM | TGI [23]: 62.7 µM | TGI [24]: > 100 µM | TGI [25]: 43.5 µM | TGI [26]: 81.6 µM | TGI [27]: 57.3 µM | TGI [28]: 44.4 µM | TGI [29]: > 100 µM | TGI [30]: 65.1 µM | TGI [31]: 29.7 µM | TGI [32]: > 100 µM | TGI [33]: > 100 µM | TGI [34]: 70.6 µM | TGI [35]: > 100 µM | TGI [36]: > 100 µM | TGI [37]: > 100 µM | TGI [38]: 37.2 µM | TGI [39]: > 100 µM | TGI [40]: > 100 µM | TGI [41]: > 100 µM | TGI [42]: 93 µM | TGI [43]: > 100 µM | TGI [44]: > 100 µM | TGI [45]: 91.2 µM | TGI [46]: 94.9 µM

Cc1ncc(CBr)c(CBr)c1O
TGI [1]: > 100 µM | TGI [47]: > 100 µM | TGI [2]: > 100 µM | TGI [4]: > 100 µM | TGI [5]: > 100 µM | TGI [48]: > 100 µM | TGI [6]: > 100 µM | TGI [7]: > 100 µM | TGI [12]: > 100 µM | TGI [49]: > 100 µM | TGI [50]: > 100 µM | TGI [15]: > 100 µM | TGI [17]: > 100 µM | TGI [18]: > 100 µM | TGI [19]: > 100 µM | TGI [20]: > 100 µM | TGI [21]: > 100 µM | TGI [51]: > 100 µM | TGI [22]: > 100 µM | TGI [24]: > 100 µM | TGI [25]: > 100 µM | TGI [27]: > 100 µM | TGI [28]: > 100 µM | TGI [52]: > 100 µM | TGI [29]: > 100 µM | TGI [30]: > 100 µM | TGI [53]: > 100 µM | TGI [31]: > 100 µM | TGI [32]: > 100 µM | TGI [33]: > 100 µM | TGI [54]: > 100 µM | TGI [39]: > 100 µM | TGI [40]: > 100 µM | TGI [41]: > 100 µM | TGI [43]: > 100 µM | TGI [55]: > 100 µM | TGI [56]: > 100 µM | TGI [46]: > 100 µM

O=c1oc2ccccc2n1P(=O)(Oc1ccc(Cl)cc1)n1c(=O)oc2ccccc21
TGI [1]: > 100 µM | TGI [2]: > 100 µM | TGI [3]: > 100 µM | TGI [4]: > 100 µM | TGI [5]: > 100 µM | TGI [48]: > 100 µM | TGI [6]: > 100 µM | TGI [8]: > 100 µM | TGI [9]: > 100 µM | TGI [10]: > 100 µM | TGI [11]: > 100 µM | TGI [12]: > 100 µM | TGI [13]: > 100 µM | TGI [14]: > 100 µM | TGI [49]: > 100 µM | TGI [50]: > 100 µM | TGI [15]: > 100 µM | TGI [17]: > 100 µM | TGI [18]: > 100 µM | TGI [19]: > 100 µM | TGI [21]: > 100 µM | TGI [51]: > 100 µM | TGI [22]: > 100 µM | TGI [23]: > 100 µM | TGI [24]: > 100 µM | TGI [25]: > 100 µM | TGI [26]: > 100 µM | TGI [27]: > 100 µM | TGI [28]: > 100 µM | TGI [52]: > 100 µM | TGI [29]: > 100 µM | TGI [30]: > 100 µM | TGI [53]: > 100 µM | TGI [31]: > 100 µM | TGI [32]: > 100 µM | TGI [34]: > 100 µM | TGI [54]: > 100 µM | TGI [36]: > 100 µM | TGI [37]: > 100 µM | TGI [38]: > 100 µM | TGI [39]: > 100 µM | TGI [40]: > 100 µM | TGI [41]: > 100 µM | TGI [42]: > 100 µM | TGI [43]: > 100 µM | TGI [57]: > 100 µM | TGI [58]: > 100 µM | TGI [56]: > 100 µM | TGI [44]: > 100 µM | TGI [45]: > 100 µM | TGI [46]: > 100 µM

c1ccc(CC(Nc2cccnc2)c2ccccc2)cc1 (centres undefined)
TGI [1]: 36 µM | TGI [2]: > 100 µM | TGI [3]: 43.3 µM | TGI [4]: > 100 µM | TGI [5]: > 100 µM | TGI [59]: 65.6 µM | TGI [60]: > 100 µM | TGI [6]: 50.9 µM | TGI [7]: 37.9 µM | TGI [8]: > 100 µM | TGI [9]: 32.6 µM | TGI [10]: 34.3 µM | TGI [11]: > 100 µM | TGI [12]: > 100 µM | TGI [13]: 49.8 µM | TGI [14]: 98.8 µM | TGI [49]: > 100 µM | TGI [16]: 52.9 µM | TGI [17]: 36.9 µM | TGI [18]: 72.4 µM | TGI [19]: > 100 µM | TGI [61]: 76.9 µM | TGI [20]: 54.4 µM | TGI [62]: 48.7 µM | TGI [21]: 82.2 µM | TGI [63]: 47.8 µM | TGI [22]: 30.1 µM | TGI [24]: 60.1 µM | TGI [25]: 50.1 µM | TGI [26]: 98.3 µM | TGI [27]: 47.7 µM | TGI [64]: > 100 µM | TGI [28]: 51.4 µM | TGI [52]: 46.2 µM | TGI [29]: 50.8 µM | TGI [30]: 60.4 µM | TGI [53]: 40.5 µM | TGI [65]: 95.2 µM | TGI [31]: 45 µM | TGI [32]: 60.1 µM | TGI [33]: 56.5 µM | TGI [34]: 31.9 µM | TGI [54]: 35.9 µM | TGI [35]: > 100 µM | TGI [36]: 94.9 µM | TGI [37]: > 100 µM | TGI [38]: 29.4 µM | TGI [39]: > 100 µM | TGI [66]: > 100 µM | TGI [41]: 37 µM | TGI [42]: > 100 µM | TGI [43]: 39.9 µM | TGI [67]: 64.4 µM | TGI [58]: 70.2 µM | TGI [56]: > 100 µM | TGI [44]: 42 µM | TGI [68]: 68.2 µM | TGI [45]: 51.2 µM | TGI [46]: > 100 µM

Source: PubChem BioAssay (NCI)
